PubChem BioAssay AID1996
≈ marks a conversion by molar mass, not a printed value.

Settings: buffer; pH 7.4; 200.0 µM

SMILES | solubility kinetic
CC1CCN(C(=O)COc2cccc3c2CCN(Cc2ccccc2)C3=O)CC1 | 55.9 µg/mL (≈ 142 µM)
CSc1ccccc1C(=O)Nc1ccc2c(c1)CCC2 | 16.8 µg/mL (≈ 59.3 µM)
O=C1C2CCCCN2C(=O)N1CCCN1CCN(c2ccc(F)cc2)CC1 (stereo not given) | 48.1 µg/mL (≈ 128 µM)
O=C(Cc1cccs1)Nc1ccc(F)c(F)c1 | 20.9 µg/mL (≈ 82.5 µM)
O=C(COC(=O)C1CCC1)NCc1ccc(F)cc1 | > 39.8 µg/mL
CN1CCCN(C(=O)c2cccc(Br)c2)CC1 | 35.4 µg/mL (≈ 119 µM)
O=C(NCc1ccco1)c1cccc(C(F)(F)F)c1 | > 40.4 µg/mL
COCc1cc(C)[nH]c(=O)c1C(=O)NC12CC3CC(CC(C3)C1)C2 | 9.6 µg/mL (≈ 29.1 µM)
CCOC(=O)c1ccc(NC(=O)N2CCc3ccccc3C2)cc1 | 19.2 µg/mL (≈ 59.2 µM)
CCN(CC)C(=O)c1ccc(NC(=O)COc2ccccc2F)cc1 | > 51.7 µg/mL
O=C(NCCCCNC(=O)c1ccccc1F)c1ccccc1F | > 49.9 µg/mL
CCNC(=O)COC(=O)/C=C/c1cccs1 | > 35.9 µg/mL
COC(=O)c1ccc(C(=O)OC)c(NC(=O)CN2CCC(C)CC2)c1 | 0.6 µg/mL (≈ 1.72 µM)
Cc1ccc(S(N)(=O)=O)cc1NC(=O)C(c1ccccc1)c1ccccc1 | 37 µg/mL (≈ 97.2 µM)
Cc1cc(=O)[nH]c(SCc2ccc(Cl)cc2)n1 | 13.2 µg/mL (≈ 49.5 µM)
CC12CC3CC(C)(C1)CC(C(=O)NCc1ccncc1)(C3)C2 | > 44.8 µg/mL
C=CCOC(=O)c1ccc(N2CCN(c3ccccc3)CC2)nc1 | 0.9 µg/mL (≈ 2.78 µM)
CC(C)CNC(=S)N1CCC(NC(=O)c2ccco2)CC1 | 41.9 µg/mL (≈ 135 µM)
COc1ccc(N2C(=O)Cc3c2nc(N)c(C#N)c3N)cc1 | 13 µg/mL (≈ 44 µM)
Cn1c2ccc(F)cc2c2ncn(CC3CCCO3)c(=O)c21 (stereo not given) | 4 µg/mL (≈ 13.3 µM)
O=C1Nc2ccc([N+](=O)[O-])cc2C1=Nc1cccc(CO)c1 | > 44.6 µg/mL
COc1ccccc1CNC(=O)COC(=O)c1ccc(C(=O)c2ccccc2)cc1 | 8.2 µg/mL (≈ 20.3 µM)
COc1ccc(NS(=O)(=O)c2ccc(C(=O)N3CCN(c4ccc(F)cc4)CC3)cc2)cc1 | 12.1 µg/mL (≈ 25.8 µM)

SMILES | solubility kinetic
CN=C(N)NC(=O)Nc1c(C)cccc1C.Cl | > 38.5 µg/mL
CN(C(=O)CSc1nncn1-c1ccccc1)c1ccccc1 | > 48.7 µg/mL
Cc1cc(S(=O)(=O)N2CCN(c3ccccn3)CC2)ccc1F | 3.6 µg/mL (≈ 10.7 µM)
COCCN(C(=O)c1cc(-c2ccco2)nc2ccccc12)c1c(N)n(Cc2ccccc2)c(=O)[nH]c1=O | > 76.7 µg/mL
O=C(Nc1cc(S(=O)(=O)N2CCOCC2)ccc1N1CCOCC1)c1ccccc1[N+](=O)[O-] | > 71.5 µg/mL
Cc1ccc(CNC(=O)Nc2ccc(F)cc2)n1C | > 39.2 µg/mL
COc1ccc(NC(=O)c2cccnc2)cc1OCC(C)C | 27.2 µg/mL (≈ 90.6 µM)
O=C(CN1CCCc2ccccc21)Nc1ccccc1[N+](=O)[O-] | 0.5 µg/mL (≈ 1.61 µM)
Cc1cnc(NC(=O)c2sc(Nc3ccccc3)nc2N)o1 | 6.4 µg/mL (≈ 20.3 µM)
Cc1c(C(=O)OCC(=O)N2CCCCC2C)oc2ccccc12 (stereo not given) | > 47.3 µg/mL
O=C1CNC(=S)N1C(CO)c1ccccc1 (stereo not given) | > 35.4 µg/mL
COC(=O)c1cc(C(=O)NCc2ccc3c(c2)OCO3)cc([N+](=O)[O-])c1 | 2.6 µg/mL (≈ 7.26 µM)
CN1CCN(CCCNC(=S)Nc2ccc(F)c(Cl)c2)CC1 | 43 µg/mL (≈ 125 µM)
CCN1C(=O)c2cccc3c(N)ccc(c23)C1=O | 7.5 µg/mL (≈ 31.2 µM)
O=C(OCc1cccc([N+](=O)[O-])c1)c1cc2ccccc2oc1=O | < 0.7 µg/mL
CC1CC(C)CN(S(=O)(=O)c2ccc(Cl)cc2)C1 (stereo not given) | 9.3 µg/mL (≈ 32.3 µM)
Cc1ccccc1NC(=S)N(CCN(C)C)C(C)c1cccnc1 (stereo not given) | > 51.4 µg/mL
COc1ccc(Cl)cc1NC(=O)COC(=O)C1CC(=O)N(Cc2ccccc2)C1 (stereo not given) | 57.4 µg/mL (≈ 138 µM)
COc1ccc(C(=O)/C=C/NCc2ccc(F)cc2)cc1OC | > 47.3 µg/mL
CN(C)Cc1cc2ccccc2c2c1COC2 | 31.5 µg/mL (≈ 139 µM)
O=C(Cn1c(CO)nc2ccccc21)NCCc1ccc(F)cc1 | 36.7 µg/mL (≈ 112 µM)
Cn1c(=O)c2c(nc(NNC(=O)C(F)(F)F)n2C)n(C)c1=O | > 48 µg/mL
O=C(Cn1cc([N+](=O)[O-])cn1)NCCc1nc2ccccc2[nH]1 | > 47.1 µg/mL

SMILES | solubility kinetic
O=C(NCCS(=O)(=O)N1CCCCCC1)c1ccccc1 | > 46.6 µg/mL
CCOc1ncccc1C(=O)Nc1cccc(S(=O)(=O)N2CCOCC2)c1 | 12 µg/mL (≈ 30.7 µM)
C=CCNc1nc(C(=O)OC(C)C(=O)c2ccc(C)cc2)cs1 (stereo not given) | 8.8 µg/mL (≈ 26.6 µM)
COc1ccc(S(=O)(=O)N2CCCCC2)cc1NC(=O)C1CC(=O)N(Cc2ccco2)C1 (stereo not given) | > 69.2 µg/mL
O=C(NCC1CCCCC1)c1cccc(-c2ccc(O)cc2)c1 | < 0.7 µg/mL
COC(=O)c1sccc1NC(=O)c1ccccc1Br | 2.3 µg/mL (≈ 6.76 µM)
Cc1ccc(N2C(=O)CC(Sc3cccs3)C2=O)cc1 (stereo not given) | 35 µg/mL (≈ 115 µM)
Cl.NCc1ccccc1 | > 21.5 µg/mL
CCc1ccc(C(=O)OCC(=O)N2CCCCCC2)cc1 | 14.5 µg/mL (≈ 50.1 µM)
Cc1ccccc1C(=O)NCC(=O)c1ccccc1 | > 38 µg/mL
CC(C(=O)Nc1ccc(C(F)(F)F)cc1)N(C)CC(=O)N1CCN(Cc2ccccc2)CC1.O=C(O)C(=O)O (stereo not given) | 52.1 µg/mL
CN(CC(=O)NCc1ccc(F)cc1)Cc1cccc(Cl)c1 | 38.7 µg/mL (≈ 121 µM)
CCOC(=O)c1sc(=NC(=O)c2c(F)cccc2F)n(C)c1C | 0.9 µg/mL (≈ 2.64 µM)
COC(=O)Nc1c(-c2ccccc2)nc2ccc(Cl)cn12 | 2.2 µg/mL (≈ 7.29 µM)
Cc1cc(NC(=O)c2cccnc2)ccc1Br | 40.2 µg/mL (≈ 138 µM)
O=C(CN1C(=O)S/C(=C\c2cc(Cl)c(O)c(Cl)c2)C1=O)Nc1ccccc1 | 3.6 µg/mL (≈ 8.51 µM)
CC(=O)Nc1ccc(CN2CCN(C3CCCC3)C(CCO)C2)cc1 (stereo not given) | > 51.8 µg/mL
O=C(NCCc1ccccc1)c1ccc(Cl)cc1[N+](=O)[O-] | > 45.7 µg/mL
O=C(NCc1ccccn1)c1cccc(S(=O)(=O)N2CCc3ccccc32)c1 | 21 µg/mL (≈ 53.4 µM)
CC(C)(C)c1ccc(C(=O)N2CCN(c3ncccn3)CC2)cc1 | 9.6 µg/mL (≈ 29.6 µM)
CC(C)(C)NS(=O)(=O)c1ccc(/C=C/C(=O)O)cc1 | > 42.5 µg/mL
COc1cc2c(cc1OC)CN(C(=O)/C=C/c1cccs1)CC2 | > 49.4 µg/mL
Cc1ccccc1NC(=O)COc1ccc2c(c1)OC(C)(C)CC2=O | < 0.7 µg/mL

SMILES | solubility kinetic
CSc1ncccc1C(=O)Nc1ccc(OC(F)(F)F)cc1 | 3.8 µg/mL (≈ 11.6 µM)
Cn1cc(-c2ccccc2C(=O)O)c(=O)c2ccccc21 | > 41.9 µg/mL
COc1ccc2nc(C)cc(Nc3ccc(C(=O)O)cc3)c2c1 | 40.5 µg/mL (≈ 131 µM)
CN1[C@@H](CC(=O)c2ccccc2)CCC[C@H]1C[C@H](O)c1ccccc1.Cl | > 56.1 µg/mL
COc1cccc(C(=O)Nc2ccc(NC(=O)C3CCCCC3)nc2)c1 | 2 µg/mL (≈ 5.66 µM)
CC(C)C(NC(=O)CCN1C(=O)c2ccccc2C1=O)c1ccccc1 (stereo not given) | 18.3 µg/mL (≈ 52.2 µM)
Cc1ccccc1NC(=O)NCCCN1CCCC1=O | > 41.3 µg/mL
O=C1/C(=C\c2ccsc2)N2CCC1CC2 | 21.3 µg/mL (≈ 97.1 µM)
COc1ccc(CNC(=O)Cn2cncn2)cc1OC | > 41.4 µg/mL
O=C(COCc1cc(-c2ccco2)on1)NC1CCCCC1 | 42.4 µg/mL (≈ 139 µM)
CC(=O)C1=C(O)C(=O)N(Cc2ccccc2)C1c1ccc([N+](=O)[O-])cc1 (stereo not given) | > 52.9 µg/mL
Cc1cnc(C(=O)OCC(=O)C23CC4CC(CC(C4)C2)C3)cn1 | > 47.2 µg/mL
CC(C)Cc1ccc(C(=O)Nc2ccc(Cc3ccncc3)cc2)o1 | 8.7 µg/mL (≈ 26 µM)
COc1ccc(NC(=O)Nc2cccc(C)n2)c(OC)c1 | < 0.2 µg/mL
CCOc1ccc(NC(=O)CCC(=O)c2ccc(F)cc2)cc1 | 2.5 µg/mL (≈ 7.93 µM)
Cc1ccc(NC(=O)CN(C)C(=O)COc2cccc3cccnc23)cc1 | 52.4 µg/mL (≈ 144 µM)
Clc1nc(NCc2ccco2)nc(N2CCCCC2)n1 | 0.3 µg/mL (≈ 1.02 µM)
N#Cc1ccccc1NC(=O)COC(=O)/C=C/c1ccc(S(=O)(=O)N2CCOCC2)cc1 | 5.7 µg/mL (≈ 12.5 µM)
COCC(C)NC(=O)COCc1cc(-c2ccc3c(c2)OCO3)on1 (stereo not given) | 39 µg/mL (≈ 112 µM)
CC1CC(=O)Nc2ccccc2N1C(=O)CN1C(=O)C(=O)N(C)C1=O (stereo not given) | > 51.6 µg/mL
Cc1ccccc1-n1c(C)nc2ccsc2c1=O.Cl | > 43.9 µg/mL
Cc1ccc(C2Nc3ccccc3C(=O)N2CCCN2CCOCC2)cc1 (stereo not given) | 50.3 µg/mL (≈ 138 µM)
CCOc1ncccc1C(=O)Nc1ncc(C)s1 | 15.5 µg/mL (≈ 58.9 µM)

SMILES | solubility kinetic
COC(CNC(=O)c1ccc2c(c1)ncn2C1CCCCCC1)OC | > 51.8 µg/mL
O=S(=O)(CCNCc1cccs1)c1ccc(Cl)cc1 | 32.5 µg/mL (≈ 103 µM)
Cc1ccc(CNC(=O)Nc2ccc(F)cc2F)n1C | > 41.9 µg/mL
Cc1ccc(Cl)cc1N1C(=O)CC(Sc2ncccn2)C1=O (stereo not given) | > 50.1 µg/mL
CC(C)CC1NC(=O)N(CC(=O)Nc2cc(S(=O)(=O)N3CCOCC3)ccc2Cl)C1=O (stereo not given) | 8.2 µg/mL (≈ 17.3 µM)
NC(=O)COn1c(SCC(N)=O)nc2ccccc2c1=O | > 46.2 µg/mL
COc1cc(OC)c(C(=O)OC(C)C(=O)NCc2ccc3c(c2)OCO3)cc1OC (stereo not given) | > 62.6 µg/mL
O=C1C2C3C=CC(CC3)C2C(=O)N1c1ccccc1 (stereo not given) | 25.9 µg/mL (≈ 102 µM)
COc1ccc(-n2cc(-c3ccccc3)[nH]c2=S)c(OC)c1 | 3.3 µg/mL (≈ 10.6 µM)
CC1(c2ccc3ccccc3c2)NC(=O)N(CC(=O)O)C1=O (stereo not given) | > 44.7 µg/mL
CC1CN(C(=O)c2cc3cc(Cl)ccc3[nH]2)CC(C)O1 (stereo not given) | 24.3 µg/mL (≈ 83 µM)
CC(=O)N1CCN(C(=O)c2ccc(C)c(S(=O)(=O)N3CCCCC3)c2)CC1 | > 59 µg/mL
Cc1cccc(C(=O)O/N=C(\N)CS(=O)(=O)c2ccccc2)c1 | 1.6 µg/mL (≈ 4.81 µM)
CN(C)c1cccc(C(=O)OCC(=O)N2CCc3ccccc3C2)c1 | 27.9 µg/mL (≈ 82.4 µM)
CCOc1ccccc1NC(=O)c1cccc(NC(=O)C2CCCC2)c1 | 13.4 µg/mL (≈ 38 µM)
O=C(NC1CC1)c1cccc(Oc2ccccc2)c1 | > 38 µg/mL
O=C(NCCN1C(=O)S/C(=C\c2ccc(Cl)cc2)C1=O)C1=COCCO1 | 2.6 µg/mL (≈ 6.59 µM)
Cc1ccc2nc(SCC(=O)NC3CCCC3)[nH]c2c1 | 36.1 µg/mL (≈ 125 µM)
CCN1CCN(C(=O)N(c2ccccc2)c2ccccc2)CC1 | > 46.4 µg/mL
CC(C)(C)c1ccc(/C=C(\C#N)C(=O)Nc2ccccn2)cc1 | 0.6 µg/mL (≈ 1.96 µM)
O=C(CN1CCN(c2ccccn2)CC1)Nc1cccc(F)c1 | 19.9 µg/mL (≈ 63.3 µM)
O=C(O)c1cn(C2CCCCC2)c2ccccc2c1=O | > 40.7 µg/mL
CN(CC(=O)Nc1cccc(F)c1)C(=O)CC1CCCC1 | > 43.9 µg/mL
